Here are results for 13 compounds from patent US5183821A, “Method for treating leukemias using N-(2-dimethylaminoethyl)-3-amino-1,8-naphthalimide for treating leukemias and solid tumors” (priority 1991, dated 1993).

In one assay the test system is leukemia P388. Briefly: NCI studies against leukemia P388 (Appendix 1, MDA and T/C). The class given is in vivo, murine. As to conditions: for response vs control in vivo at 60 mg/kg: P388, dose 60,00 mg/kg; for response vs control in vivo at 120 mg/kg: P388, dose 120,00 mg/kg; for response vs control in vivo at 240 mg/kg: P388, dose 240,00 mg/kg; for STATUS (activity against leukemia P388): at the dose of the same line of the appendix table; for MDA against leukemia P388 / minimal effective dose: minor active dose reaching T/C≥120; for minimal effective dose: P388; for response vs control in vivo at 30 mg/kg: P388, dose 30,00 mg/kg. The text has this: On the other hand, murine transplantable leukemias are a good predictor of anti-leukemia activity in human beings (Kenis "Dose schedules and mode of administration of chemotherapeutic agents in man". Recent Results Cancer Res. 21, 54-61 (1969). Only those tests which use the survival times as an activity parameter are valid as predictors of antileukemia activity in human beings (for instance, leukemia p388 y L-1210), whilst "in vitro" tests (HeLa cells and other) are inappropriate (Llombart-Rodriguez, 1983). NCI data generated in the last years confirm the value of above assertions to compounds of general formula [drawing 1] as described in U.S. Pat. No. 4,204,063.
Experimental results from NCI studies against leukemia P388 are shown in an appendix (Appendix 1). In order to simplify the presentation of results we have extracted from these the minor active dose (MDA) against leukemia P388--for each compound. MDA is defined as the minor dose of the drug that reaches the minimal activity criteria of the NCI. For leukemia P388 this criteria on the basis of survival time is a minimal increase in survival of treated animals over a control resulting in a T/C≥120. In the following table the MDA for 14 examples are presented. In cases where none of the tested doses reached the MDA, the MDA is indicated as "NONE". The column "cytotoxic activity" has been extracted from U.S. Pat. No. 4,204,063. Data are presented in order of the highest to lowest cytotoxic activity.

The next assay relates to HeLa cells. The conditions noted are these: cytotoxic activity in vitro, monolayer; cited from earlier work.

≈ marks a conversion by molar mass, not a printed value.

In the assay on leukemia P388 (Mus musculus), `CCN(CC)CCCN1C(=O)c2cccc3cc([N+](=O)[O-])cc(c23)C1=O` [Example 3] gave a response vs control in vivo at 60 mg/kg of 108%, a response vs control in vivo at 120 mg/kg of 103% and a response vs control in vivo at 240 mg/kg of 114%. Moreover, in the assay on leukemia P388, the “STATUS (activity against leukemia P388)” value was “None dose tested” and the “MDA against leukemia P388” value was “NONE”. Further, in the assay with HeLa cells, the “ID50 in HeLa cells” value is 20.0 µg/mL (≈ 56.3 µM).

In the assay with leukemia P388 (Mus musculus), `O=C1c2cccc3cc([N+](=O)[O-])cc(c23)C(=O)N1CCN1CCOCC1` [Example 4] registered a response vs control in vivo at 60 mg/kg of 96%, a response vs control in vivo at 120 mg/kg of 96% and a response vs control in vivo at 240 mg/kg of 100%. Further, in the assay with leukemia P388, the “STATUS (activity against leukemia P388)” value was “None dose tested” and the “MDA against leukemia P388” value is listed as “NONE”. The “ID50 in HeLa cells” value in the assay on HeLa cells was 6.0 µg/mL (≈ 16.9 µM).

As usually defined, the minimal effective dose is the smallest amount tested that counted as effective. Higher therefore signals a need for much substance. For `CCN(CC)CCN1C(=O)c2cccc3cc(N)cc(c23)C1=O` [Example 10], the response vs control in vivo at 1 mg in the assay with leukemia P388 (Mus musculus, P388, dose 1,56 mg as printed) was 101%; in the assay on leukemia P388 (Mus musculus, P388, dose 1,60 mg as printed), 100%. The response vs control in vivo at 3 mg in the assay with leukemia P388 (Mus musculus, P388, dose 3,12 mg as printed) came out at 98%; in the assay with leukemia P388 (Mus musculus, P388, dose 3,20 mg as printed), 108%. For the same compound, the response vs control in vivo at 6 mg was 98% in the assay with leukemia P388 (Mus musculus, P388, dose 6,25 mg as printed) and 107% in the assay on leukemia P388 (Mus musculus, P388, dose 6,50 mg as printed). The compound also registered a response vs control in vivo at 13 mg in the assay with leukemia P388 (Mus musculus, P388, dose 13,00 mg as printed) of 121%. In the assay with leukemia P388 (Mus musculus, P388, dose 25,00 mg as printed), the response vs control in vivo at 25 mg came out at 114%. The compound further returned a response vs control in vivo at 26 mg with leukemia P388 (Mus musculus, P388, dose 26,00 mg as printed) of 124%. The response vs control in vivo at 50 mg in the assay with leukemia P388 (Mus musculus, P388, dose 50,00 mg as printed) was 160%. In the assay on leukemia P388 (Mus musculus, P388, dose 100,00 mg as printed), this compound registered a response vs control in vivo at 100 mg of less than 100%. Moreover, the minimal effective dose in the assay on leukemia P388 (Mus musculus) was found to be 3.2 mg/kg. Besides, in the assay with leukemia P388, the “STATUS (activity against leukemia P388)” value is recorded as “T/C > 120 active”. In addition, the “ID50 in HeLa cells” value in the assay with HeLa cells was 3.0 µg/mL (≈ 9.63 µM).

`Nc1cc2c3c(cccc3c1)C(=O)N(CCN1CCCC1)C2=O` [Example 11]: in the assay on leukemia P388 (Mus musculus, P388, dose 24,20 mg/kg), the response vs control in vivo at 24 mg/kg was determined as 160%. The same compound yielded a response vs control in vivo at 48 mg/kg with leukemia P388 (Mus musculus, P388, dose 48,39 mg/kg) of 96%. The minimal effective dose in the assay on leukemia P388 (Mus musculus) was determined as 6.5 mg/kg. Moreover, the “STATUS (activity against leukemia P388)” value in the assay with leukemia P388 is given as “T/C > 120 active”. The “ID50 in HeLa cells” value with HeLa cells is 1.5 µg/mL (≈ 4.85 µM).

As for `Nc1cc2c3c(cccc3c1)C(=O)N(CCN1CCCCC1)C2=O` [Example 12], in the assay on leukemia P388 (Mus musculus), the response vs control in vivo at 60 mg/kg came out at 108%, the response vs control in vivo at 120 mg/kg was determined as 103% and the response vs control in vivo at 240 mg/kg was 114%. Besides, in the assay on leukemia P388, the “STATUS (activity against leukemia P388)” value is on record as “None dose tested” and the “MDA against leukemia P388” value is on record as “NONE”. The “ID50 in HeLa cells” value in the assay with HeLa cells is 8.0 µg/mL (≈ 24.7 µM).

With `Nc1cc2c3c(cccc3c1)C(=O)N(CCN1CCOCC1)C2=O` [Example 13], in the assay with leukemia P388 (Mus musculus), the response vs control in vivo at 60 mg/kg came to 102%, the response vs control in vivo at 120 mg/kg was determined as 102% and the response vs control in vivo at 240 mg/kg stood at 109%. For the same compound, in the assay on leukemia P388, the “STATUS (activity against leukemia P388)” value is reported as “None dose tested” and the “MDA against leukemia P388” value is reported as “NONE”. The “ID50 in HeLa cells” value with HeLa cells was 10.0 µg/mL (≈ 30.7 µM).

In the assay on leukemia P388 (Mus musculus), `O=C1c2cccc3cc(O)cc(c23)C(=O)N1CCN1CCOCC1` [Example 24] gave a response vs control in vivo at 30 mg/kg of 107%, a response vs control in vivo at 60 mg/kg of 110%, a response vs control in vivo at 120 mg/kg of 117% and a response vs control in vivo at 240 mg/kg of 127%. This compound also yielded a minimal effective dose in the assay on leukemia P388 (Mus musculus) of 240 mg/kg. In the assay with leukemia P388, the “STATUS (activity against leukemia P388)” value was “T/C > 120 active”. Besides, the “ID50 in HeLa cells” value in the assay with HeLa cells is 3.5 µg/mL (≈ 10.7 µM).

Turning to `COc1cc2c3c(cccc3c1)C(=O)N(CCN(C)C)C2=O` [Example 26], the minimal effective dose in the assay on leukemia P388 (Mus musculus) is 18.9 mg/kg. In the assay with leukemia P388, the “STATUS (activity against leukemia P388)” value is “T/C > 120 active”. In the assay on HeLa cells, the “ID50 in HeLa cells” value was 1.5 µg/mL (≈ 5.03 µM).

Compound `COc1cc2c3c(cccc3c1)C(=O)N(CCN1CCCC1)C2=O` [Example 27] came in with a response vs control in vivo at 17 mg/kg in the assay with leukemia P388 (Mus musculus, P388, dose 17,30 mg/kg) of 112%. In the assay with leukemia P388 (Mus musculus, P388, dose 34,70 mg/kg), this compound had a response vs control in vivo at 34 mg/kg of 116%. In the assay on leukemia P388 (Mus musculus, P388, dose 50,00 mg/kg), this compound gave a response vs control in vivo at 50 mg/kg of 100%. The compound further showed a response vs control in vivo at 69 mg/kg in the assay on leukemia P388 (Mus musculus, P388, dose 69,30 mg/kg) of 116%. In the assay with leukemia P388 (Mus musculus, P388, dose 100,00 mg/kg), this compound yielded a response vs control in vivo at 100 mg/kg of 101%. In the assay on leukemia P388 (Mus musculus, P388, dose 200,00 mg/kg), this compound yielded a response vs control in vivo at 200 mg/kg of 100%. In the assay on leukemia P388, the “STATUS (activity against leukemia P388)” value is given as “None dose tested” and the “MDA against leukemia P388” value is “NONE”. For the same compound, the T/C % result with leukemia P388 (dose 138,60 mg/kg) is listed as “Toxic”. Also, the “ID50 in HeLa cells” value in the assay on HeLa cells was 0.75 µg/mL (≈ 2.31 µM).

For the compound `CCOC(=O)Nc1cc2c3c(cccc3c1)C(=O)N(CCN(C)C)C2=O` [Example 28], in the assay on leukemia P388 (Mus musculus), the response vs control in vivo at 30 mg/kg came out at 123% and the minimal effective dose stood at 30 mg/kg. Besides, the “STATUS (activity against leukemia P388)” value in the assay with leukemia P388 is reported as “T/C > 120 active”. For the same compound, the “ID50 in HeLa cells” value in the assay on HeLa cells is 10.0 µg/mL (≈ 28.1 µM).

Take `CCOC(=O)Nc1cc2c3c(cccc3c1)C(=O)N(CCN1CCCC1)C2=O` [Example 29]: in the assay with leukemia P388 (Mus musculus), the response vs control in vivo at 30 mg/kg is 127%, the response vs control in vivo at 60 mg/kg worked out at 131%, the response vs control in vivo at 120 mg/kg amounted to 135% and the response vs control in vivo at 240 mg/kg came to 158%. Further, in the assay on leukemia P388 (Mus musculus), the minimal effective dose came out at 30 mg/kg. In addition, in the assay with leukemia P388, the “STATUS (activity against leukemia P388)” value is “T/C > 120 active”. The “ID50 in HeLa cells” value in the assay with HeLa cells was 10.0 µg/mL (≈ 26.2 µM).

In the case of `CC(=O)Nc1cc2c3c(cccc3c1)C(=O)N(CCN(C)C)C2=O` [Example 30], in the assay on leukemia P388 (Mus musculus, P388, dose 3,75 mg/kg), the response vs control in vivo at 3.75 mg/kg is 137%. In addition, the response vs control in vivo at 7 mg/kg in the assay on leukemia P388 (Mus musculus, P388, dose 7,50 mg/kg) is 144%. The compound further yielded a response vs control in vivo at 60 mg/kg in the assay on leukemia P388 (Mus musculus) of less than 100%. In the assay with leukemia P388 (Mus musculus), this compound displayed a minimal effective dose of 3.75 mg/kg. In addition, the “STATUS (activity against leukemia P388)” value with leukemia P388 was “T/C > 120 active”. Further, the T/C % entry with leukemia P388 (dose 120,00 mg/kg) and in the assay on leukemia P388 (dose 240,00 mg/kg) was “Toxic” each time. Further, the “ID50 in HeLa cells” value in the assay on HeLa cells is 4.0 µg/mL (≈ 12.3 µM).

In the assay with leukemia P388 (Mus musculus), `CC(=O)Nc1cc2c3c(cccc3c1)C(=O)N(CCN1CCCC1)C2=O` [Example 31] registered a response vs control in vivo at 30 mg/kg of 186%, a response vs control in vivo at 60 mg/kg of 184%, a response vs control in vivo at 120 mg/kg of 107% and a minimal effective dose of 30 mg/kg. In the assay on leukemia P388, the “STATUS (activity against leukemia P388)” value is given as “T/C > 120 active”. Besides, in the assay on HeLa cells, the “ID50 in HeLa cells” value was 5.0 µg/mL (≈ 14.2 µM).
